# According to PubChem BioAssay (NCI):
#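 These data come from cells grown in 96-well plates and exposed to compound for 48 hours at five concentrations. GI50 = concentration required for 50% inhibition of growth. TGI: concentration producing complete growth inhibition.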
# What was measured:
# Assay in all cases: growth of human tumour cells (NCI), 48 h
# [1] = test system: NCI-H226 lung
# [2] = test system: A549 NSCLC
# [3] = test system: MDA-MB-231 breast
# [4] = test system: COLO 205 colon
# [5] = test system: SW-620 colon
# [6] = test system: MDA-MB-435
# [7] = test system: MALME-3M melanoma
# [8] = test system: HCT-15 colon
# [9] = test system: SF-539 CNS
# [10] = test system: MOLT-4 leukemia
# [11] = test system: HCT-116 colon
# [12] = test system: OVCAR-5 ovarian
# [13] = test system: OVCAR-8 ovarian
# [14] = test system: T-47D breast
# [15] = test system: RXF 393 renal
# [16] = test system: RPMI-8226 leukemia
# [17] = test system: HOP-62 NSCLC
# [18] = test system: UO-31 renal
# [19] = test system: IGROV1 ovarian
# [20] = test system: SK-OV-3 ovarian
# [21] = test system: NCI/ADR-RES ovarian
# [22] = test system: SR leukemia
# [23] = test system: SK-MEL-5 melanoma
# [24] = test system: SF-268 CNS
# [25] = test system: UACC-257 melanoma
# [26] = test system: U251 CNS
# [27] = test system: TK-10 renal
# [28] = test system: DU-145 prostate
# [29] = test system: NCI-H522 lung
# [30] = test system: SK-MEL-28 melanoma
# [31] = test system: MCF7 breast
# [32] = test system: A498 renal
# [33] = test system: SN12C renal
# [34] = test system: LOX IMVI melanoma
# [35] = test system: HT29 colon
# [36] = test system: OVCAR-4 ovarian
# [37] = test system: KM12 colon
# [38] = test system: EKVX NSCLC
# [39] = test system: HOP-92 NSCLC
# [40] = test system: NCI-H23 lung
# [41] = test system: SNB-19 CNS
# [42] = test system: OVCAR-3 ovarian
# [43] = test system: SF-295 CNS
# [44] = test system: M14 melanoma
# [45] = test system: SK-MEL-2 melanoma
# [46] = test system: 786-0 renal
# [47] = test system: SNB-75 CNS
# [48] = test system: HS 578T breast
# [49] = test system: NCI-H460 lung
# [50] = test system: CCRF-CEM leukemia
# [51] = test system: ACHN renal
# [52] = test system: BT-549 breast
# [53] = test system: K-562 leukemia
# [54] = test system: HCC-2998 colon
# [55] = test system: PC-3 prostate
# [56] = test system: UACC-62 melanoma
# [57] = test system: CAKI-1 renal
# [58] = test system: HL-60(TB) leukemia
structure (smiles),measurement,setting,value
CCOC(=O)c1ccc(Nc2sc(C(=O)c3cccc([N+](=O)[O-])c3)c(N)c2C#N)cc1,GI50,[1],4.67 µM
same,TGI,[1],99.5 µM
same,GI50,[2],0.23 µM
same,GI50,[3],1.1 µM
same,TGI,[3],9.63 µM
same,GI50,[4],0.156 µM
same,TGI,[4],1.59 µM
same,GI50,[5],0.0591 µM
same,TGI,[5],6.63 µM
same,GI50,[6],0.0309 µM
same,TGI,[6],0.264 µM
same,GI50,[7],0.0754 µM
same,TGI,[7],23 µM
same,GI50,[8],0.102 µM
same,TGI,[8],> 100 µM
same,GI50,[9],0.0885 µM
same,TGI,[9],13.2 µM
same,GI50,[10],0.203 µM
same,TGI,[10],6.59 µM
same,GI50,[11],0.0505 µM
same,TGI,[11],4.17 µM
same,GI50,[12],2.25 µM
same,TGI,[12],29.6 µM
same,GI50,[13],1.4 µM
same,TGI,[13],10.4 µM
same,GI50,[14],0.141 µM
same,TGI,[14],> 68.5 µM
same,GI50,[15],0.167 µM
same,TGI,[15],24.8 µM
same,GI50,[16],0.333 µM
same,TGI,[16],20.3 µM
same,GI50,[17],0.108 µM
same,TGI,[17],6.39 µM
same,GI50,[18],0.0543 µM
same,TGI,[18],20 µM
same,GI50,[19],0.0244 µM
same,TGI,[19],26 µM
same,GI50,[20],0.181 µM
same,TGI,[20],18.6 µM
same,GI50,[21],0.0521 µM
same,TGI,[21],25.7 µM
same,GI50,[22],0.034 µM
same,TGI,[22],4.71 µM
same,GI50,[23],0.156 µM
same,TGI,[23],12.2 µM
same,GI50,[24],0.198 µM
same,TGI,[24],21 µM
same,GI50,[25],0.301 µM
same,TGI,[25],> 31.6 µM
same,GI50,[26],0.0607 µM
same,TGI,[26],3.86 µM
same,GI50,[27],0.192 µM
same,TGI,[27],17.3 µM
same,GI50,[28],0.184 µM
same,TGI,[28],21.1 µM
same,GI50,[29],0.0277 µM
same,TGI,[29],0.852 µM
same,GI50,[30],8.32 µM
same,TGI,[30],> 59.9 µM
same,GI50,[31],0.102 µM
same,TGI,[31],13.2 µM
same,GI50,[32],0.0827 µM
same,TGI,[32],5.04 µM
same,GI50,[33],0.497 µM
same,TGI,[33],> 46.7 µM
same,GI50,[34],0.148 µM
same,TGI,[34],15.4 µM
same,GI50,[35],0.0398 µM
same,TGI,[35],3.12 µM
same,GI50,[36],0.612 µM
same,TGI,[36],57.1 µM
same,GI50,[37],0.0678 µM
same,TGI,[37],6.43 µM
same,GI50,[38],0.469 µM
same,TGI,[38],> 75.8 µM
same,GI50,[39],0.109 µM
same,TGI,[39],28.1 µM
same,GI50,[40],0.425 µM
same,TGI,[40],22.6 µM
same,GI50,[41],0.338 µM
same,TGI,[41],18.6 µM
same,GI50,[42],0.0218 µM
same,TGI,[42],0.0617 µM
same,GI50,[43],0.0228 µM
same,TGI,[43],0.102 µM
same,GI50,[44],0.213 µM
same,TGI,[44],23.9 µM
same,GI50,[45],0.403 µM
same,TGI,[45],24.4 µM
same,GI50,[46],0.122 µM
same,TGI,[46],15.3 µM
same,GI50,[47],0.116 µM
same,TGI,[47],0.65 µM
same,GI50,[48],0.129 µM
same,TGI,[48],> 39.1 µM
same,GI50,[49],0.0519 µM
same,TGI,[49],4.14 µM
same,GI50,[50],0.067 µM
same,TGI,[50],8.34 µM
same,GI50,[51],0.0976 µM
same,TGI,[51],> 44.2 µM
same,GI50,[52],0.0568 µM
same,TGI,[52],39.4 µM
same,GI50,[53],0.0375 µM
same,TGI,[53],6.53 µM
same,GI50,[54],2.78 µM
same,TGI,[54],> 100 µM
same,GI50,[55],0.179 µM
same,TGI,[55],> 32.1 µM
same,GI50,[56],0.0789 µM
same,TGI,[56],23.4 µM
same,GI50,[57],0.044 µM
same,TGI,[57],0.253 µM
COc1ccc(OC)c(C#Cc2ccc(OC)c(C(=O)NCCc3ccc(F)cc3)c2)c1,TGI,[2],> 100 µM
same,TGI,[4],> 100 µM
same,TGI,[5],> 100 µM
same,TGI,[6],4.62 µM
same,TGI,[8],> 100 µM
same,TGI,[10],> 100 µM
same,GI50,[11],4.7 µM
same,TGI,[11],> 100 µM
same,TGI,[12],> 100 µM
same,TGI,[13],> 100 µM
same,TGI,[14],> 100 µM
same,TGI,[16],> 100 µM
same,GI50,[17],4.94 µM
same,TGI,[17],> 100 µM
same,TGI,[18],> 100 µM
same,TGI,[19],> 100 µM
same,TGI,[21],> 100 µM
same,TGI,[22],> 100 µM
same,TGI,[23],> 100 µM
same,TGI,[24],> 100 µM
same,TGI,[25],> 100 µM
same,TGI,[26],> 100 µM
same,TGI,[27],> 100 µM
same,GI50,[28],> 100 µM
same,TGI,[28],> 100 µM
same,TGI,[29],> 100 µM
same,TGI,[31],> 100 µM
same,TGI,[32],> 100 µM
same,TGI,[58],> 100 µM
same,GI50,[33],> 100 µM
same,TGI,[33],> 100 µM
same,TGI,[34],> 100 µM
same,TGI,[35],> 100 µM
same,TGI,[36],> 100 µM
same,TGI,[37],> 100 µM
same,TGI,[38],> 100 µM
same,TGI,[40],> 100 µM
same,TGI,[41],> 100 µM
same,TGI,[43],> 100 µM
same,TGI,[44],> 100 µM
same,TGI,[45],> 100 µM
same,TGI,[46],> 100 µM
same,TGI,[48],> 100 µM
same,TGI,[49],> 100 µM
same,GI50,[50],4.72 µM
same,TGI,[50],> 100 µM
same,TGI,[51],> 100 µM
same,TGI,[52],> 100 µM
same,TGI,[53],> 100 µM
same,TGI,[54],7.73 µM
same,TGI,[55],> 100 µM
same,GI50,[56],5.96 µM
same,TGI,[56],> 100 µM
same,TGI,[57],> 100 µM
